The results in this text go back to PMC8034821 (The Journal of Venomous Animals and Toxins Including …, 2021).

The subject of this assay is krait (Bungarus sindanus) venom acetylcholinesterase (AChE). Kind of assay: Ellman (DTNB) assay, Lineweaver-Burk plot. In kind it is biochemical. To be noted: no inhibitor; 50 mM phosphate pH 7.4; 25 or 37 °C (both printed); crude venom. Background: Ellman's reagent forms a yellow product with free thiols.

Take `CC(=O)SCC[N+](C)(C)C` [AcSCh]: the Km came to 74.1 µM.

As a reminder, the Km is the concentration of substrate that gives half-maximal velocity.
